This note sets out measurements from the supplement of paper PMC7108870.

Test [1] has as its system HEK293sieSTAT3(Y640F). Put plainly: drug sensitivity score (DSS), viability CellTiter-Glo (DSS (dimensionless)); higher = more growth inhibition; extreme values may be limits of the assay. The conditions noted are these: 72 h; STAT3 variant: Y640F (constitutively active). The method, boiled down: (§1)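 In 384-well plates with acoustically pre-plated compounds (5 concentrations, 10-fold dilutions), 20 μl of HEK293 cells at 100,000 cells/ml were added; the cells overexpressed wild-type or mutant STAT3 and carried a STAT3-dependent luciferase reporter. Incubation lasted 72 hours at 37°C and 5% CO2 before sequential CellTox Green (485/520 nm) and CellTiter-Glo reads on a PHERAstar FS. After normalisation to negative and positive control wells, Breeze was used to derive a drug sensitivity score from the dose-response curve area.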

Test [2] relates to HEK293sieSTAT3(wt). The test is described as above. Conditions: 72 h; STAT3 variant: wild type. The procedure, abridged: as §1
Test [3] relates to HEK293sieSTAT3(Y640F). Briefly: drug sensitivity score (DSS), cytotoxicity CellTox Green (DSS (dimensionless)); higher = more cytotoxic; extreme values may be limits of the assay. Conditions: 72 h; STAT3 variant: Y640F (constitutively active). The method, boiled down: as §1
The subject of test [4] is HEK293sieSTAT3(wt). The description is as above. Conditions: 72 h; STAT3 variant: wild type. The procedure, abridged: as §1

Each structure is given as a SMILES string.

Consider `O=C1CN2Cc3c(ccc(Cl)c3Cl)N=C2N1` [Anagrelide] (top concentration tested 10000 nM), for which the drug sensitivity score in test [1] was determined as 0.64; in test [2], 0.64; in test [3], 0.01; in test [4] it was 0.62.

For `CC(C)(C#N)c1cc(Cn2cncn2)cc(C(C)(C)C#N)c1` [Anastrozole] (top concentration tested 10000 nM), the drug sensitivity score in test [1] was 0.01; in test [2], 0; in test [3], 0; in test [4], 0.

With `N#CC1(c2ccc(NC(=O)c3cccnc3NCc3ccncc3)cc2)CCCC1` [Apatinib] (top concentration tested 10000 nM), the drug sensitivity score came to 0.11 in test [1], 0 in test [2], 0.2 in test [3] and 0.3 in test [4].

`Cc1c(CN2CCN(C(=O)[C@H](C)O)CC2)sc2c(N3CCOCC3)nc(-c3cnc(N)nc3)nc12` [Apitolisib] (top concentration tested 10000 nM): the drug sensitivity score is 23.8 in test [1], 19.8 in test [2], 0 in test [3] and 8.67 in test [4].

Regarding `CC(C)c1c(C(=O)Nc2ccccc2)c(-c2ccccc2)c(-c2ccc(F)cc2)n1CC[C@@H](O)C[C@@H](O)CC(=O)O` [Atorvastatin] (top concentration tested 10000 nM), the drug sensitivity score in test [1] is 6.61; in test [2], 8.29; in test [3] it was 9.06; in test [4], 6.93.

For the compound `CC(=O)OC[C@H]1O[C@@H]([S-])[C@H](OC(C)=O)[C@@H](OC(C)=O)[C@@H]1OC(C)=O.CCP(CC)CC.[Au+]` [Auranofin] (top concentration tested 2500 nM), the drug sensitivity score is 9.25 in test [1], 8.14 in test [2], 6.36 in test [3] and 9.45 in test [4].

On to `CNC(=O)c1ccccc1Sc1ccc2c(/C=C/c3ccccn3)n[nH]c2c1` [Axitinib] (top concentration tested 10000 nM), for which the drug sensitivity score in test [1] came to 5.84; in test [2] it was 8.07; in test [3], 4.38; in test [4], 7.83.

Turning to `Nc1ncn([C@@H]2O[C@H](CO)[C@@H](O)[C@H]2O)c(=O)n1` [Azacitidine] (top concentration tested 10000 nM), the drug sensitivity score in test [1] was determined as 2.86; in test [2] it was 2.72; in test [3], 0; in test [4], 0.87.

For `Cc1cc(-c2nc(-c3ccc(OC(F)(F)F)cc3)no2)nn1Cc1ccnc(N2CCN(C3CC3)CC2)c1` [BAY 87-2243] (top concentration tested 1000 nM), the drug sensitivity score came out at 12.6 in test [1], 12.5 in test [2], 0 in test [3] and 0 in test [4].

Regarding `Nc1nc(Nc2ccc3c(c2)CC[C@@H](N2CCCC2)CC3)nn1-c1cc2c(nn1)-c1ccccc1CCC2` [BGB324] (top concentration tested 10000 nM), the drug sensitivity score in test [1] amounted to 10.2; in test [2], 12; in test [3], 6.14; in test [4], 11.9.

In the case of `CC[C@@H]1C(=O)N(C)c2cnc(Nc3ccc(C(=O)NC4CCN(C)CC4)cc3OC)nc2N1C1CCCC1` [BI 2536] (top concentration tested 1000 nM), the drug sensitivity score in test [1] came to 23.5; in test [2], 24.7; in test [3] it was 2.98; in test [4], 20.1.

Turning to `COc1c(C)cnc(Cn2cnc3c(Cl)nc(N)nc32)c1C` [BIIB021] (top concentration tested 10000 nM), the drug sensitivity score in test [1] is 24.6; in test [2] it was 27.9; in test [3], 9.95; in test [4] it was 24.2.

On to `O=C(Nc1cccc(Nc2ncc(Br)c(NCCc3cnc[nH]3)n2)c1)N1CCCC1` [BX-912] (top concentration tested 10000 nM), for which the drug sensitivity score was 5.58 in test [1], 6.67 in test [2], 0 in test [3] and 0 in test [4].

`Cc1ccc(NC(=O)c2ccc(CN3CC[C@H](N(C)C)C3)c(C(F)(F)F)c2)cc1Nc1nccc(-c2cncnc2)n1` [Bafetinib] (top concentration tested 1000 nM): the drug sensitivity score in test [1] was determined as 1.34; in test [2], 2.29; in test [3], 0; in test [4] it was 0.

`CCS(=O)(=O)N1CC(CC#N)(n2cc(-c3ncnc4[nH]ccc34)cn2)C1` [Baricitinib] (top concentration tested 2500 nM): the drug sensitivity score in test [1] came out at 2.8; in test [2], 1.02; in test [3] it was 0; in test [4], 0.42.

For `O=C(/C=C/c1cccc(S(=O)(=O)Nc2ccccc2)c1)NO` [Belinostat] (top concentration tested 10000 nM), the drug sensitivity score in test [1] stood at 16.9; in test [2], 13.1; in test [3], 8.83; in test [4], 8.71.

In the case of `Cn1c(CCCC(=O)O)nc2cc(N(CCCl)CCCl)ccc21` [Bendamustine] (top concentration tested 10000 nM), the drug sensitivity score in test [1] was determined as 0.53; in test [2] it was 3.94; in test [3] it was 0; in test [4], 0.

On to `N#CC(c1ccnc(OCc2ccc(CN3CCOCC3)cc2)n1)c1nc2ccccc2s1` (configuration not stated) [Bentamapimod] (top concentration tested 10000 nM), for which the drug sensitivity score in test [1] amounted to 5.3; in test [2] it was 8.85; in test [3] it was 0.96; in test [4], 0.

`C=C(c1ccc(C(=O)O)cc1)c1cc2c(cc1C)C(C)(C)CCC2(C)C` [Bexarotene] (top concentration tested 10000 nM): the drug sensitivity score in test [1] worked out at 2; in test [2] it was 3.75; in test [3], 0; in test [4] it was 0.

In the case of `CC(O)(CS(=O)(=O)c1ccc(F)cc1)C(=O)Nc1ccc(C#N)c(C(F)(F)F)c1` (configuration not stated) [Bicalutamide] (top concentration tested 10000 nM), the drug sensitivity score was found to be 3.98 in test [1], 4.54 in test [2], 0 in test [3] and 0 in test [4].

Consider `CCNC(=O)CCC/C=C\C[C@@H]1[C@@H](/C=C/[C@@H](O)CCc2ccccc2)[C@H](O)C[C@@H]1O` [Bimatoprost] (top concentration tested 5500 nM), for which the drug sensitivity score in test [1], in test [2], in test [3] and in test [4] was 0 throughout.

As to `Cn1cnc2c(F)c(Nc3ccc(Br)cc3F)c(C(=O)NOCCO)cc21` [Binimetinib] (top concentration tested 1000 nM), the drug sensitivity score was found to be 1.87 in test [1], 0.52 in test [2], 0 in test [3] and 0 in test [4].

As for `CC[C@H](NC(=O)[C@H](C)NC)C(=O)N1C[C@@H](O)C[C@H]1Cc1c(-c2[nH]c3cc(F)ccc3c2C[C@@H]2C[C@H](O)CN2C(=O)[C@H](CC)NC(=O)[C@H](C)NC)[nH]c2cc(F)ccc12` [Birinapant] (top concentration tested 1000 nM), the drug sensitivity score in test [1] came out at 7.4; in test [2], 15.6; in test [3], 19.5; in test [4] it was 30.4.

As for `Cc1c(N)nc([C@H](CC(N)=O)NC[C@H](N)C(N)=O)nc1C(=O)N[C@H](C(=O)N[C@H](C)[C@@H](O)[C@H](C)C(=O)N[C@H](C(=O)NCCc1nc(-c2nc(C(=O)NCCC[S+](C)C)cs2)cs1)[C@@H](C)O)[C@@H](OC1OC(CO)C(O)C(O)C1OC1OC(CO)C(O)C(OC(N)=O)C1O)c1cnc[nH]1` (some centres not stated) [Bleomycin] (top concentration tested 10000 nM), the drug sensitivity score in test [1] was 20.1; in test [2] it was 18.8; in test [3] it was 4.25; in test [4], 5.92.

For the compound `CC(C)C[C@H](NC(=O)[C@H](Cc1ccccc1)NC(=O)c1cnccn1)B(O)O` [Bortezomib] (top concentration tested 1000 nM), the drug sensitivity score in test [1] turned out to be 29.8; in test [2], 32.5; in test [3], 30.6; in test [4] it was 31.7.

With `COc1cc(Nc2c(C#N)cnc3cc(OCCCN4CCN(C)CC4)c(OC)cc23)c(Cl)cc1Cl` [Bosutinib] (top concentration tested 10000 nM), the drug sensitivity score in test [1] is 7.76; in test [2] it was 8.54; in test [3], 7.59; in test [4] it was 7.02.

Regarding `COc1cc(N2CCC(N3CCN(C)CC3)CC2)ccc1Nc1ncc(Cl)c(Nc2ccccc2P(C)(C)=O)n1` [Brigatinib] (top concentration tested 2500 nM), the drug sensitivity score in test [1] came out at 7.58; in test [2], 8.02; in test [3], 0.69; in test [4], 1.71.

As for `Cc1cc2c(F)c(Oc3ncnn4cc(OC[C@@H](C)O)c(C)c34)ccc2[nH]1` [Brivanib] (top concentration tested 1000 nM), the drug sensitivity score in test [1] worked out at 0.26; in test [2] it was 0; in test [3], 0; in test [4] it was 0.

`CCC/C=C/C=C/C(=O)O[C@H]1/C(=C/C(=O)OC)C[C@H]2C[C@H]([C@@H](C)O)OC(=O)C[C@H](O)C[C@@H]3C[C@H](OC(C)=O)C(C)(C)[C@](O)(C[C@@H]4C/C(=C/C(=O)OC)C[C@H](/C=C/C(C)(C)[C@]1(O)O2)O4)O3` [Bryostatin 1] (top concentration tested 100 nM): the drug sensitivity score was 0 in test [1], 0.13 in test [2], 0.65 in test [3] and 0.86 in test [4].

`Nc1cc(C(F)(F)F)c(-c2cc(N3CCOCC3)nc(N3CCOCC3)n2)cn1` [Buparlisib] (top concentration tested 10000 nM): the drug sensitivity score was determined as 10.5 in test [1], 12.3 in test [2], 0.73 in test [3] and 4 in test [4].

For `CS(=O)(=O)OCCCCOS(C)(=O)=O` [Busulfan] (top concentration tested 100000 nM), the drug sensitivity score is 0.42 in test [1], 4.87 in test [2], 0 in test [3] and 1.26 in test [4].

On to `O=C(O)CCCCC(CCSCc1ccccc1)SCc1ccccc1` (configuration not stated) [CPI-613] (top concentration tested 10000 nM), for which the drug sensitivity score turned out to be 0.32 in test [1], 2.62 in test [2], 0 in test [3] and 0.8 in test [4].

Turning to `C#Cc1cccc(Nc2ncnc3cc(OC)c(OCCCCCCC(=O)NO)cc23)c1` [CUDC-101] (top concentration tested 10000 nM), the drug sensitivity score in test [1] turned out to be 16.1; in test [2], 9.59; in test [3] it was 7.69; in test [4] it was 3.02.
